Test results: the supplement of paper PMC9663587

Tests used:
YKL-5-124 = compound: C=CC(=O)Nc1ccc(C(=O)Nc2[nH]nc3c2CN(C(=O)N[C@H](CN(C)C)c2ccccc2)C3(C)C)cc1 [YKL-5-124]; assay: increase in dead-cell fraction, 72 h; higher = more death;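 further: breast cancer cell lines in 384-well plates, stained with Hoechst plus LIVE/DEAD far red dye and imaged, cells above an LDR intensity threshold counted dead, Hoechst-negative corpses included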
BSJ-03-123 = compound: CC(=O)c1c(C)c2cnc(Nc3ccc(N4CCN(CCOCCOCCOCCNC(=O)COc5cccc6c5C(=O)N(C5CCC(=O)NC5=O)C6=O)CC4)cn3)nc2n(C2CCCC2)c1=O [BSJ-03-123]; assay: as above
[1] = compound: CC(=O)c1c(C)c2cnc(Nc3ccc(N4CCNCC4)cn3)nc2n(C2CCCC2)c1=O; assay: as above
[2] = compound: CCN1CCN(Cc2ccc(Nc3ncc(F)c(-c4cc(F)c5nc(C)n(C(C)C)c5c4)n3)nc2)CC1; assay: as above
Neratinib/HKI272 [3] = compound: T1, CCOc1cc2ncc(C#N)c(Nc3ccc(OCc4ccccn4)c(Cl)c3)c2cc1NC(=O)/C=C/CN(C)C [Neratinib/HKI272]; assay: as above
[4] = compound: CCc1cnn2c(NCc3ccc[n+]([O-])c3)cc(N3CCCC[C@H]3CCO)nc12; assay: as above
LEE011/Ribociclib = compound: CN(C)C(=O)c1cc2cnc(Nc3ccc(N4CCNCC4)cn3)nc2n1C1CCCC1 [LEE011/Ribociclib]; assay: as above
THZ531 = compound: CN(C)C/C=C/C(=O)Nc1ccc(C(=O)N2CCC[C@@H](Nc3ncc(Cl)c(-c4c[nH]c5ccccc45)n3)C2)cc1 [THZ531]; assay: as above
THZ1 [5] = compound: T2, CN(C)C/C=C/C(=O)Nc1ccc(C(=O)Nc2cccc(Nc3ncc(Cl)c(-c4c[nH]c5ccccc45)n3)c2)cc1 [THZ1]; assay: as above
Flavopiridol = compound: CN1CC[C@H](c2c(O)cc(O)c3c(=O)cc(-c4ccccc4Cl)oc23)[C@H](O)C1 [Flavopiridol]; assay: as above
Neratinib/HKI272 [6] = compound: T1, Neratinib/HKI272; assay: GR value, 72 h; higher = faster growth (1 = untreated, <0 = killing);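 further: breast cancer and non-malignant breast epithelial lines, nine half-log doses, viable cells counted by Hoechst and LIVE/DEAD dye imaging versus time-zero plates and DMSO controls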
THZ1 [7] = compound: T2, THZ1; assay: as above

Cell Line: HCC1806
- increase in dead-cell fraction (YKL-5-124; 0.001 µM): 0.0531
- increase in dead-cell fraction (YKL-5-124; 0.003162 µM): 0.0858
- increase in dead-cell fraction (YKL-5-124; 0.01 µM): 0.134
- increase in dead-cell fraction (YKL-5-124; 0.03162 µM): 0.202
- increase in dead-cell fraction (YKL-5-124; 0.1 µM): 0.196
- increase in dead-cell fraction (YKL-5-124; 0.3162 µM): 0.264
- increase in dead-cell fraction (YKL-5-124; 1 µM): 0.331
- increase in dead-cell fraction (YKL-5-124; 3.162 µM): 0.322
- increase in dead-cell fraction (YKL-5-124; 10 µM): 0.538
- increase in dead-cell fraction (BSJ-03-123; 0.001 µM): 0.0017
- increase in dead-cell fraction (BSJ-03-123; 0.003162 µM): 0.0008
- increase in dead-cell fraction (BSJ-03-123; 0.01 µM): -0.0016
- increase in dead-cell fraction (BSJ-03-123; 0.03162 µM): -0.0015
- increase in dead-cell fraction (BSJ-03-123; 0.1 µM): 0.0039
- increase in dead-cell fraction (BSJ-03-123; 0.3162 µM): 0.0061
- increase in dead-cell fraction (BSJ-03-123; 1 µM): 0.0075
- increase in dead-cell fraction (BSJ-03-123; 3.162 µM): 0.0235
- increase in dead-cell fraction (BSJ-03-123; 10 µM): 0.152
- increase in dead-cell fraction ([1]; 0.0003162 µM): 0.0005
- increase in dead-cell fraction ([1]; 0.001 µM): 0.0026
- increase in dead-cell fraction ([1]; 0.003162 µM): 0.0009
- increase in dead-cell fraction ([1]; 0.01 µM): -0.0004
- increase in dead-cell fraction ([1]; 0.03162 µM): 0.0094
- increase in dead-cell fraction ([1]; 0.1 µM): 0.0238
- increase in dead-cell fraction ([1]; 0.3162 µM): 0.0157
- increase in dead-cell fraction ([1]; 1 µM): 0.0237
- increase in dead-cell fraction ([1]; 3.162 µM): 0.0046
- increase in dead-cell fraction ([2]; 0.001 µM): 0.0032
- increase in dead-cell fraction ([2]; 0.003162 µM): -0.005
- increase in dead-cell fraction ([2]; 0.01 µM): 0.0052
- increase in dead-cell fraction ([2]; 0.03162 µM): 0.0175
- increase in dead-cell fraction ([2]; 0.1 µM): 0.0076
- increase in dead-cell fraction ([2]; 0.3162 µM): 0.0172
- increase in dead-cell fraction ([2]; 1 µM): 0.043
- increase in dead-cell fraction ([2]; 3.162 µM): 0.154
- increase in dead-cell fraction ([2]; 10 µM): 0.698
- increase in dead-cell fraction (Neratinib/HKI272 [3]; 0.0003162 µM): 0.0048
- increase in dead-cell fraction (Neratinib/HKI272 [3]; 0.001 µM): -0.0002
- increase in dead-cell fraction (Neratinib/HKI272 [3]; 0.003162 µM): 0.0056
- increase in dead-cell fraction (Neratinib/HKI272 [3]; 0.01 µM): 0.015
- increase in dead-cell fraction (Neratinib/HKI272 [3]; 0.03162 µM): 0.0267
- increase in dead-cell fraction (Neratinib/HKI272 [3]; 0.1 µM): 0.0441
- increase in dead-cell fraction (Neratinib/HKI272 [3]; 0.3162 µM): 0.065
- increase in dead-cell fraction (Neratinib/HKI272 [3]; 1 µM): 0.0775
- increase in dead-cell fraction (Neratinib/HKI272 [3]; 3.162 µM): 0.435
- increase in dead-cell fraction ([4]; 0.0001 µM): -0.0016
- increase in dead-cell fraction ([4]; 0.0003162 µM): -0.0077
- increase in dead-cell fraction ([4]; 0.001 µM): -0.0005
- increase in dead-cell fraction ([4]; 0.003162 µM): 0.0006
- increase in dead-cell fraction ([4]; 0.01 µM): 0.0355
- increase in dead-cell fraction ([4]; 0.03162 µM): 0.585
- increase in dead-cell fraction ([4]; 0.1 µM): 0.742
- increase in dead-cell fraction ([4]; 0.3162 µM): 0.728
- increase in dead-cell fraction ([4]; 1 µM): 0.713
- increase in dead-cell fraction (LEE011/Ribociclib; 0.001 µM): 0.0002
- increase in dead-cell fraction (LEE011/Ribociclib; 0.003162 µM): -0.0001
- increase in dead-cell fraction (LEE011/Ribociclib; 0.01 µM): 0.0014
- increase in dead-cell fraction (LEE011/Ribociclib; 0.03162 µM): -0.0047
- increase in dead-cell fraction (LEE011/Ribociclib; 0.1 µM): 0.0015
- increase in dead-cell fraction (LEE011/Ribociclib; 0.3162 µM): 0.0032
- increase in dead-cell fraction (LEE011/Ribociclib; 1 µM): 0.0064
- increase in dead-cell fraction (LEE011/Ribociclib; 3.162 µM): 0.0046
- increase in dead-cell fraction (LEE011/Ribociclib; 10 µM): 0.0171
- increase in dead-cell fraction (THZ531; 0.0001 µM): 0.0006
- increase in dead-cell fraction (THZ531; 0.0003162 µM): 0.001
- increase in dead-cell fraction (THZ531; 0.001 µM): 0.0004
- increase in dead-cell fraction (THZ531; 0.003162 µM): -0.0016
- increase in dead-cell fraction (THZ531; 0.01 µM): -0.0015
- increase in dead-cell fraction (THZ531; 0.03162 µM): 0.0016
- increase in dead-cell fraction (THZ531; 0.1 µM): 0.0014
- increase in dead-cell fraction (THZ531; 0.3162 µM): 0.0179
- increase in dead-cell fraction (THZ531; 1 µM): 0.586
- increase in dead-cell fraction (THZ1 [5]; 0.0001 µM): -0.0025
- increase in dead-cell fraction (THZ1 [5]; 0.0003162 µM): -0.0038
- increase in dead-cell fraction (THZ1 [5]; 0.001 µM): -0.0025
- increase in dead-cell fraction (THZ1 [5]; 0.003162 µM): -0.0009
- increase in dead-cell fraction (THZ1 [5]; 0.01 µM): -0.0024
- increase in dead-cell fraction (THZ1 [5]; 0.03162 µM): 0.0112
- increase in dead-cell fraction (THZ1 [5]; 0.1 µM): 0.0478
- increase in dead-cell fraction (THZ1 [5]; 0.3162 µM): 0.271
- increase in dead-cell fraction (THZ1 [5]; 1 µM): 0.766
- increase in dead-cell fraction (Flavopiridol; 0.0001 µM): -0.0011
- increase in dead-cell fraction (Flavopiridol; 0.0003162 µM): -0.0029
- increase in dead-cell fraction (Flavopiridol; 0.001 µM): 0.003
- increase in dead-cell fraction (Flavopiridol; 0.003162 µM): -0.001
- increase in dead-cell fraction (Flavopiridol; 0.01 µM): 0.0029
- increase in dead-cell fraction (Flavopiridol; 0.03162 µM): 0.005
- increase in dead-cell fraction (Flavopiridol; 0.1 µM): 0.019
- increase in dead-cell fraction (Flavopiridol; 0.3162 µM): 0.0572
- increase in dead-cell fraction (Flavopiridol; 1 µM): 0.71
- GR value (Neratinib/HKI272 [6]; 0.0003162 µM): 1.08 GR
- GR value (Neratinib/HKI272 [6]; 0.001 µM): 1.06 GR
- GR value (Neratinib/HKI272 [6]; 0.003162 µM): 1.04 GR
- GR value (Neratinib/HKI272 [6]; 0.01 µM): 0.99 GR
- GR value (Neratinib/HKI272 [6]; 0.03162 µM): 0.881 GR
- GR value (Neratinib/HKI272 [6]; 0.1 µM): 0.811 GR
- GR value (Neratinib/HKI272 [6]; 0.3162 µM): 0.675 GR
- GR value (Neratinib/HKI272 [6]; 1 µM): 0.546 GR
- GR value (Neratinib/HKI272 [6]; 3.162 µM): -0.0945 GR
- GR value (THZ1 [7]; 0.0001 µM): 1.08 GR
- GR value (THZ1 [7]; 0.0003162 µM): 1.04 GR
- GR value (THZ1 [7]; 0.001 µM): 1.04 GR
- GR value (THZ1 [7]; 0.003162 µM): 1 GR
- GR value (THZ1 [7]; 0.01 µM): 0.968 GR
- GR value (THZ1 [7]; 0.03162 µM): 0.739 GR
- GR value (THZ1 [7]; 0.1 µM): 0.323 GR
- GR value (THZ1 [7]; 0.3162 µM): -0.252 GR
- GR value (THZ1 [7]; 1 µM): -0.656 GR
